US8021686B2, “Lipid-encapsulated polyanionic nucleic acid” (The University of British Columbia, priority 1997, dated 2011)

Key:
pKa of amino lipid = assay type: physicochemical
[1] = Assessment of antisense encapsulation (encapsulation efficiency, drug:lipid ratio); assay type: physicochemical
Description: drug to lipid ratio: The amount of drug (therapeutic agent) in a defined volume of preparation divided by the amount of lipid in the same volume. This may be on a mole per mole basis or on a weight per weight basis, or on a weight per mole basis. For final, administration-ready formulations, the drug:lipid ratio is calculated after dialysis, chromatography and/or enzyme (e.g., nuclease) digestion has been employed to remove as much of the external therapeutic agent (e.g., nucleic acid) as possible.
encapsulation efficiency: the drug to lipid ratio of the starting mixture divided by the drug to lipid ratio of the final, administration competent formulation. This is a measure of relative efficiency. For a measure of absolute efficiency, the total amount of therapeutic agent (nucleic acid) added to the starting mixture that ends up in the administration competent formulation, can also be calculated. The amount of lipid lost during the formulation process may also be calculated. […]
Antisense encapsulation was typically assessed by dual label ([^3H]-antisense and [^14C]-lipid) liquid scintillation counting after gel filtration chromatography to separate the free and encapsulated antisense. Antisense encapsulation was evaluated by summing the total [^3H]-antisense radioactivity associated with the lipid peak and dividing by the total [^3H]-antisense radioactivity. […]

ICAM-1 gene = assay: Ear inflammation model (DNFB contact sensitivity); assay type: in vivo, ICR mice; details: lipid-encapsulated antisense, i.v. 20-30 mg/kg 15 min after DNFB, 24 hours
Description: Mice were sensitized by applying 25 μL of 0.5% 2,4-dinitro-1-fluorobenzene (DNFB) in acetone: olive oil (4:1) to the shaved abdominal wall for two consecutive days. Four days after the second application, mice were challenged on the dorsal surface of the left ear with 10 μL of 0.2% DNFB in acetone:olive oil (4:1). Mice received no treatment on the contralateral (right) ear. In some cases, control mice received 10 μL of vehicle on the dorsal surface of the left ear.
Ear thickness was measured immediately prior to ear challenge, and at various time intervals after DNFB challenge, using an engineer's micrometer (Mitutoyo, Tokyo, Japan). Increases in ear thickness measurements were determined by subtracting the pre-challenge from post-challenge measurements.
Inflamed mice were treated at the time of ear challenge with a 30 mg/kg i.v. dose of either HBS (no oligo), EPC:CHOL liposomes with entrapped PS-3082 (identified as AS 1000), POPC:CHOL:DODAP:PEG-CerC14 with entrapped PS-3082 (identified as AS 4100), or DSPC:CHOL:DODAP:PEG-CerC14 with entrapped PS-3082 (identified as AS 4200). Ear swelling was measured at 24 hours after initiating inflammation using an engineer's micrometer.
Antisense Sample Preparation: Antisense was encapsulated using the standard methods of Examples 5-9, using the phosphodiester modification. […]

[2] = system: MDA-MB-453 human breast carcinoma; assay: Tumor window model, human breast tumor; assay type: in vivo, mouse; details: i.v. 10 mg/kg/administration, 3 administrations/week
Source text: The human breast carcinoma line MDA-MB-453 was implanted in a mouse tumor window model according to the method of Wu, N. Z., Da, D., Rudoll, T. L., Needham, D., Whorton, R. & Dewhirst, M. W. 1993. Increased microvascular permeability contributes to preferential accumulation of Stealth liposomes in tumor tissue. Cancer Research 53: 3765-3770; and Dewhirst, M. W., Tso, C. Y., Oliver, R., Gustafson, C. S., Secomb, T. W. & Gross, J. F. 1989. Morpholigic and hemodynamic comparison of tumor and healing normal tissue microvasculature. Int. J. Radiat. Oncol. Biol. Phys. 17: 91-99. See also Dewhirst, M W., and Needham, D. 1995. Extravasation of Stealth Liposomes into Tumors: Direct Measurement of Accumulation and Vascular Permeability using a Skin Flap Window Chamber. In Stealth Liposomes (Eds. Lasic, D. and Martin, F.) CRC Press.
In vivo efficacy evaluation: When the tumor in the window has reached a diameter of 2-3 mm, treatment with free or TCS-encapsulated US3 oligonucleotide is initiated. Treatment consists of a 200 ul intravenous administration (tail vein) of either free US3 or TCS-encapsulated US3 on a 3 administrations/week schedule and an antisense dose of 10 mg/kg/administration. Tumor size is monitored 3 times per week by microscopy.

Molecule `CCCCCCCC/C=C\CCCCCCCC(=O)OCC(CN(C)C)OC(=O)CCCCCCC/C=C\CCCCCCCC` (stereo not drawn) [DODAP, 1,2-dioleoyloxy-3-dimethylaminopropane] has a pKa (pKa of amino lipid) of 6.53.
In the case of “PO-2302: human ICAM-1 phosphodiester antisense GCCCAAGCTGGCATCCGTCA (SEQ ID No 2) (DNA, all phosphodiester, methylation of C not given here)”, the “final (administration ready) drug:lipid ratios” value ([1]; citrate varied, DSPC:CHOL:DODAP:PEG-CerC14 25:45:20:10) is reported as “greater than 10 % by weight”.
With “PO-3082: murine ICAM-1 phosphodiester antisense TGCATCCCCCAGGCCACCAT (SEQ ID No 1) (DNA, all phosphodiester, methylation of C not given here)” the “reduction of the degree of inflammation” value (ICAM-1 gene) was ~85%.
For “PS-3082: murine ICAM-1 phosphorothioate antisense TGCATCCCCCAGGCCACCAT (SEQ ID No 1) (DNA, all phosphorothioate, methylation of C not given here)”, the “reduction of the degree of inflammation” value (ICAM-1 gene) was “around 70%”.
In the case of “US3: anti-human erb-B-2 antisense GGT GCT CAC TGC GGC (SEQ ID No 3) (antisense GGTGCTCACTGCGGC; all phosphorothioate, sugars by position and methylation of C not given here)”, the “effect on tumor growth” value [2] is reported as “ineffective at inhibiting tumor growth”.
With “VEGF-R1: human VEGF-R 1 ribozyme GAGUUGCUGAUGAGGCCGAAAGGCCGAAAGUCUG (SEQ ID No 16) (GAGUUGCUGAUGAGGCCGAAAGGCCGAAAGUCUG; chemistry not fully specified)” the encapsulation efficiency ([1]; 20 mM citrate, FIG. 20) was “over 50%”.
